Measurements published in article PMC9312238, “Novel Organoselenium Redox Modulators with Potential Anticancer, Antimicrobial, and Antioxidant Activities” (Antioxidants, 2022).
Converted amounts (≈) assume the structure as drawn.

How the values were obtained:
Candida albicans [1] = assay: microbe, parasite or virus in culture; format: cell-based; design: C. albicans A% (activity index): concentration or dose not given beside the values
Experimental: (§1) The antimicrobial activities of the OSe compounds were evaluated against C. albicans yeast, as well as E. coli and S. bacteria, employing the agar well diffusion assay. Furthermore, the MICs (in µM) were determined by the microdilution method according to the reported protocol. More details are in the Supporting Information.
Compounds were evaluated for their antimicrobial activity against the Gram-negative bacteria Escherichia coli (E. coli) and the Gram-positive bacteria Staphylococcus aureus (S. aureus), as well as the Candida albicans (C. albicans) fungal strain, using the agar diffusion assay. Ampicillin and clotrimazole were used as standards. Indeed, the antimicrobial properties of the OSe compounds were also obtained from the activity index percentage (A%) according to Equation (2). (2) A%=Zone of inhibition by test compound diametre/Zone of inhibition by standard diametre×100 . […]
(§2) 1.1.1. The antimicrobial activity
The antimicrobial activities of the OSe compounds were evaluated against C. albicans yeast as well as E. coli gram-negative and S. aureus gram-positive bacteria employing the agar well diffusion assay. […]
compound by dissolving in DMSO. […]
Petri dishes, which in turn contain a nutrient media (agar 20 g, peptone 5 g, and beef extract 3 g) seeded with the dedicated strain. Incubation lasted for 24 h at 36
(§3) Furthermore, the MICs (in µM) were determined by the microdilution method according to the reported protocol. […]
(§4) Inhibition%= (Ablank-Asample)/(Ablank)*100. (1)

Candida albicans [2] = assay: MIC by microdilution, C. albicans; format: cell-based; details: Candida albicans; microdilution; read-out: MIC (μM) C. albicans
Experimental: as §1, with “Information. […]” for “Information.”
as §2
The antimicrobial activities of the OSe compounds were evaluated against C. albicans yeast as well as E. coli gram-negative and S. aureus gram-positive bacteria employing the agar well diffusion assay. Briefly, a concentration of 1 mM was prepared for each compound by dissolving in DMSO. Paper discs of standard size […] were steri-lized in an autoclave and soaked in 20 µL of the test compounds, and placed in the Petri dishes, which in turn contain a nutrient media (agar 20 g, peptone 5 g, and beef extract 3 g) seeded with the dedicated strain. Incubation lasted for 24 h at 36
as §3, §4

[3] = ABTS radical scavenging bioassay; format: biochemical
Source text: (§5) The antioxidant activity was estimated by ABTS and DPPH bioassays, according to the reported literature method. More details are in the Supplementary Materials.
(§6) Recently, OSe compounds were thoroughly used as redox modulators to control many complicated diseases (e.g., cancer and neurodegenerative diseases). The DPPH and ABTS bioassays were extensively used as rapid tools for estimating the antioxidant potency of OSe compounds [50, 51]. Ascorbic acid was used as a standard control, and the antioxidant potency was measured by the ability of the compounds to decolorize the characteristic colors of the ABTS^. and DPPH^. radicals by following the colorimetric decline in absorbance at 734 and 517 nm, respectively (Figure 2).
(§7) Figure 2 Evaluation of the antioxidant properties of the OSe compounds employing the ABTS and DPPH assays. All measurements are mean ± SD. In the DPPH assay: absorbance was read after 0.5 h of mixing […] of DPPH with […] of OSe compounds (1 mM, MeOH) at 517 nm. In the ABTS assay: […] of each OSe compound (1 mM, phosphate-buffered methanol) was mixed with the ABTS solution (60 mM), and absorbance was monitored at 734 nm.
The antioxidant activity of the investigated compounds was assessed using 2,2’-az-ino-bis(3-ethylbenzothiazoline-6-sulphonic acid (ABTS) method. The radical cation derived from ABTS was prepared by the reaction of 60 mM ABTS solution with 0.3 M manganese dioxide solution in 0.1M phosphate buffer, pH 7. Then, the mixture was shaken, centrifuged, filtered, and the absorbance (Acontrol) of the resulting green-blue solu-tion (ABTS radical solution) was measured at wavelength 734 nm. Then, […] of 1 mg/ml test compound in phosphate-buffered methanol was added. The absorbance (Atest) was measured. The reduction in color intensity was expressed as % inhibition. The % inhibi-tion for each compound is calculated from the following equation
Inhibition% = (Acontrol-Asample)/(Acontrol)*100
Ascorbic acid (vitamin C) was used as a standard antioxidant (positive control). A blank sample was run without ABTS and using MeOH/phosphate buffer (1:1) instead of the sample. A negative control sample was run with MeOH/phosphate buffer (1:1) instead

[4] = DPPH radical scavenging bioassay; format: biochemical
Source text: as §5, §6
as §7, with “734 nm. […]” for “734 nm.”
1.1.1. The antioxidant activity
The hydrogen atom or electron donation ability of the corresponding compounds was measured by estimating the bleaching of the purple color of a methanolic solution of DPPH [29]. This spectrophotometric assay uses stable DPPH. reagent. The sample was prepared by adding […] of the OSe compounds (1 mM in methanol) to […] DPPH in methanol. After 30 min of incubation in the dark, the absorbance was read against a blank at 517 nm. Ascorbic acid (vitamin C) and ebselen were used as standard antioxi-dants (positive control). A blank sample was run without DPPH. A negative control sam-ple was run using methanol instead of the sample. The radical scavenging activity was calculated using the following equation:
as §4

[5] = concentration decreasing absorbance by 50%

MIC (Candida albicans [2]) [µM] | IC50 [3, 5] [µM] | IC50 [4, 5] [µM] | SMILES | zone of inhibition at 20 µM (Candida albicans [1]; Candida albicans, inhibition zone diameter, six-mm disks soaked with 20 μM of compound, read-out: C. albicans IZD (mm)) [mm] | C. albicans A% (activity index) (Candida albicans [1]; zone of test compound / zone of standard (clotrimazole) x 100) [%] | radical scavenging activity, ABTS assay ([3]; compound 1 mM in phosphate-buffered methanol, 734 nm) [%] | radical scavenging activity, DPPH assay ([4]; compound 1 mM in MeOH, read after 0.5 h at 517 nm) [%]
2 (≈ 0.69 µg/mL) |  |  | Clc1ccccc1C(c1ccccc1)(c1ccccc1)n1ccnc1 [Clotrimazole, clotrimazole, reference compound] | 24 | 100 |  | 
 | 28.16 ± 0.19 | 19.18 ± 0.13 | O=C1O[C@H]([C@@H](O)CO)C(O)=C1O [Vitamin C, Ascorbic acid, reference compound] |  |  | 88 | 95
